Assay results reported in ChEMBL document CHEMBL1126404, “A novel approach to the site specific delivery of potential HMG-CoA reductase inhibitors” (Bioorg Med Chem Lett, 1992).

Experiments:
[1] = molecular target: T1, 3-hydroxy-3-methylglutaryl-coenzyme A reductase (Rattus norvegicus) (UniProt P51639); test: The compound was evaluated for Inhibition of rat hepatic microsomal HMG-CoA reductase at log concentration of ~-6/M.
T1 sequence (whole entry): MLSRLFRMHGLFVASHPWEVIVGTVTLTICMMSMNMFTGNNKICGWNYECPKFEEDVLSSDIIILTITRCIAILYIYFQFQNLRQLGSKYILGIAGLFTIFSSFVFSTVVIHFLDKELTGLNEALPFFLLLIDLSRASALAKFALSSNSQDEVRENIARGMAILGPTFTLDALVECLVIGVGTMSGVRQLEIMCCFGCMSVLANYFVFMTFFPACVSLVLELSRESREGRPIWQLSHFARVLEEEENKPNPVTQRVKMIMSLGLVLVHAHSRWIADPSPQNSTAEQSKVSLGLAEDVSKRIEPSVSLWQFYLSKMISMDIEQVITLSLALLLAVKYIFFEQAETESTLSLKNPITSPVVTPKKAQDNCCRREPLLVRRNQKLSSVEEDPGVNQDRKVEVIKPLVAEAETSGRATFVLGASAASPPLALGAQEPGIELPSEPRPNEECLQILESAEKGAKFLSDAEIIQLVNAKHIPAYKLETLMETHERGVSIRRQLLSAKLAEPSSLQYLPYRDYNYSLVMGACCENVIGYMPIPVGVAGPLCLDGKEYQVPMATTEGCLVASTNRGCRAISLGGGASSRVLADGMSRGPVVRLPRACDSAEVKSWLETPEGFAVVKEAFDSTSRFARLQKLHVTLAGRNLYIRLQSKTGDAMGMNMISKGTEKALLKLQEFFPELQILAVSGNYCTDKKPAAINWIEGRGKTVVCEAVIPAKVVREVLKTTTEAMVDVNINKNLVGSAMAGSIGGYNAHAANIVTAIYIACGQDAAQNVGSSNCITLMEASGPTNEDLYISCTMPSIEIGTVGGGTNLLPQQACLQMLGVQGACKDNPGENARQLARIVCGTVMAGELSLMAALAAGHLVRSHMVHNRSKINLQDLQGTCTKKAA

[2] = molecular target: T1, 3-hydroxy-3-methylglutaryl-coenzyme A reductase (Rattus norvegicus); test: The compound was evaluated for Inhibition of rat hepatic microsomal HMG-CoA reductase at log concentration of ~-7/M.
[3] = molecular target: T1, 3-hydroxy-3-methylglutaryl-coenzyme A reductase (Rattus norvegicus); test: The compound was evaluated for Inhibition of rat hepatic microsomal HMG-CoA reductase at log concentration of ~-5/M.
[4] = molecular target: T1, 3-hydroxy-3-methylglutaryl-coenzyme A reductase (Rattus norvegicus); test: The compound was evaluated for Inhibition of rat hepatic microsomal HMG-CoA reductase at log concentration of ~-4/M.
[5] = molecular target: T1, 3-hydroxy-3-methylglutaryl-coenzyme A reductase (Rattus norvegicus); test: The compound was evaluated for Inhibition of rat hepatic microsomal HMG-CoA reductase at log concentration of ~-3/M.
[6] = molecular target: T1, 3-hydroxy-3-methylglutaryl-coenzyme A reductase (Rattus norvegicus); test: The compound was evaluated for Inhibition of rat hepatic microsomal HMG-CoA reductase at log concentration of ~-8/M.
[7] = molecular target: T1, 3-hydroxy-3-methylglutaryl-coenzyme A reductase (Rattus norvegicus); test: The compound was evaluated for Inhibition of rat hepatic microsomal HMG-CoA reductase at log concentration of ~-8/M
[8] = molecular target: T1, 3-hydroxy-3-methylglutaryl-coenzyme A reductase (Rattus norvegicus); test: The compound was evaluated for Inhibition of rat hepatic microsomal HMG-CoA reductase at log concentration of ~-6/M
[9] = molecular target: T2, 3-hydroxy-3-methylglutaryl-coenzyme A reductase (Rattus norvegicus, UniProt P51639); test: The compound was evaluated for Inhibition of rat hepatic microsomal HMG-CoA reductase.
T2 sequence (P51639 whole entry): T1 sequence (whole entry)

[10] = molecular target: T1, 3-hydroxy-3-methylglutaryl-coenzyme A reductase (Rattus norvegicus); test: The compound was evaluated for Inhibition of rat hepatic microsomal HMG-CoA reductase at log concentration of ~-5/M
[11] = molecular target: T1, 3-hydroxy-3-methylglutaryl-coenzyme A reductase (Rattus norvegicus); test: The compound was evaluated for Inhibition of rat hepatic microsomal HMG-CoA reductase at log concentration of ~-3/M
[12] = molecular target: T1, 3-hydroxy-3-methylglutaryl-coenzyme A reductase (Rattus norvegicus); test: The compound was evaluated for Inhibition of rat hepatic microsomal HMG-CoA reductase at log concentration of ~-4/M
[13] = molecular target: T1, 3-hydroxy-3-methylglutaryl-coenzyme A reductase (Rattus norvegicus)
Description: The compound was evaluated for Inhibition of rat hepatic microsomal HMG-CoA reductase at log concentration of ~-9/M.

[14] = molecular target: T1, 3-hydroxy-3-methylglutaryl-coenzyme A reductase (Rattus norvegicus); remark: listed apart in the source
Description: The compound was evaluated for Inhibition of rat hepatic microsomal HMG-CoA reductase at log concentration of ~-10/M.

[15] = molecular target: T1, 3-hydroxy-3-methylglutaryl-coenzyme A reductase (Rattus norvegicus); remark: listed apart in the source
Description: The compound was evaluated for Inhibition of rat hepatic microsomal HMG-CoA reductase at log concentration of ~-11/M

| Activity (nM min-1 mg-1) [1] | Activity (nM min-1 mg-1) [2] | Activity (nM min-1 mg-1) [3] | Activity (nM min-1 mg-1) [4] | Activity (nM min-1 mg-1) [5] | Activity (nM min-1 mg-1) [6] | Activity (nM min-1 mg-1) [7] | Activity (nM min-1 mg-1) [8] | IC50 [9] [µM] | Activity (nM min-1 mg-1) [10] | Activity (nM min-1 mg-1) [11] | Activity (nM min-1 mg-1) [12] | Activity (nM min-1 mg-1) [13] | Activity (nM min-1 mg-1) [14] | Activity (nM min-1 mg-1) [15] | Compound |
| --- | --- | --- | --- | --- | --- | --- | --- | --- | --- | --- | --- | --- | --- | --- | --- |
| 300 | 290 | 290 | 290 | 250 | 280 | – | – | – | – | – | – | – | – | – | COC(=O)CC(=O)CC(O)C[C@@H](C)[C@H]1CC[C@H]2[C@@H]3[C@H](OC(C)=O)C[C@@H]4C[C@H](OC(C)=O)CC[C@]4(C)[C@H]3C[C@H](OC(C)=O)[C@]12C (some centres not stated) |
| – | – | – | – | – | – | 300 | 280 | 39.2 | 240 | 0 | 80 | – | – | – | CC(=O)O[C@@H]1CC[C@@]2(C)[C@@H](C1)C[C@@H](OC(C)=O)[C@@H]1[C@@H]2C[C@H](OC(C)=O)[C@]2(C)[C@@H]([C@H](C)CC(O)CC(O)CC(=O)O)CC[C@@H]12 (some centres not stated) |
| 0 | – | – | – | – | – | – | – | – | – | – | – | 240 | 280 | 280 | CC[C@@H](C)C(=O)O[C@H]1C[C@@H](C)C=C2C=C[C@H](C)[C@H](CC[C@@H](O)C[C@@H](O)CC(=O)O)[C@H]21 |
| 150 | 270 | 30 | 0 | – | – | 280 | – | 12.3 | – | – | – | – | – | – | C[C@H](CC(O)CC(O)CC(=O)O)[C@H]1CC[C@H]2[C@@H]3[C@H](O)C[C@@H]4C[C@H](O)CC[C@]4(C)[C@H]3C[C@H](OC(=O)C(C)(C)C)[C@]12C (some centres not stated) |
